The text below walks through data of article PMC11766601, “A Comparative Study of the In Vitro Intestinal Permeability of Pinnatoxins and Portimine” (Marine Drugs, 2025).

Marks after values point to notes of the source that are not given here.

For series [1], the system named is Caco-2 cell monolayers. Put plainly: Lucifer Yellow paracellular permeability (barrier integrity). Format: cell-based, human. Conditions: 24 h, all concentrations (8, 16, 32 ng/mL). The procedure:
(§1) All experiments were performed with human intestinal Caco-2 cells (ATCC-HTB37), acquired from the American Type Culture Collection (ATCC; Manassas, VA, USA). Caco-2 cells originate from a colorectal adenocarcinoma, but upon reaching confluence, they differentiate and express the characteristics of enterocytes. The cells were cultivated in minimum essential medium containing 5.5 mM D-glucose, Earle’s salts, and 2 mM L-alanyl-glutamine (MEM GlutaMAX™, Gibco, Bromont, QC, Canada) supplemented with 10% fetal bovine serum (FBS, Gibco), 1% non-essential amino acids, 50 U/mL penicillin, and 50 μg/mL streptomycin (Gibco) under humidified conditions (37 °C, 5% CO2, 95% humidity). The cells were grown for 3–4 days up to 80% confluence before trypsinization and sub-culture. For the experiments, the cells were seeded in TRANSWELL® plates (12 wells, 0.4 µm pore size; Costar®, Corning Incorporated, Corning, NY, USA) at a density of 90,000 cells/cm^2. Prior to toxin treatment, highly differentiated Caco-2 cells were obtained after 24–26 days of culture, with medium renewal every 2–3 days. Passage numbers between 30 and 40 were used for experiments.
(§2) PnTX-A, PnTX-G, PnTX-E, PnTX-H, and portimine stock solutions were prepared in methanol, while PnTX-F was provided in acetonitrile/acetic acid (50%/0.1%). For each toxin, the cells were incubated at 8, 16, and 32 ng/mL (diluted in HBSS) for 2 h, 6 h, and 24 h, with a final volume of 1.5% solvent. The controls were incubated with the cell culture medium containing the respective solvent of the toxin at 1.5%. Each experiment included three biological replicates. Two to three independent experiments were conducted.
For the assay, both compartments of the insert system were washed with Hank’s balanced salt solution (HBSS). Then, 0.5 mL of 0.1 mg/mL Lucifer Yellow in HBSS buffer and 1 mL of pure HBSS buffer were added to the apical and basolateral compartments, respectively. After a 2 h incubation at 37 °C, the media of the basolateral compartments were collected and the fluorescence of each compartment was measured in triplicate (excitation: 405 nm, emission: 520 nm) with a FLUOstar Optima microplate reader (BMG Labtech, Ortenberg, Germany). After subtraction of the blank (HBSS), the permeability of the […] was calculated against the value obtained for pure LY and reported as % permeability.

Series [2] is described as follows: Toxin crossing and apparent permeability across Caco-2 cell monolayers (A to B), LC-MS/MS. Type of series: in vitro ADME, human. Conditions: human, Caco-2; for Papp at 2 h, 8 ng/mL / Papp at 6 h, 8 ng/mL: loaded 8 ng/mL; for Papp at 2 h, 8 ng/mL / Papp at 2 h, 16 ng/mL / Papp at 2 h, 32 ng/mL / Papp at 6 h, 8 ng/mL / Papp at 6 h, 16 ng/mL / Papp at 6 h, 32 ng/mL: A to B; for Papp at 2 h, 16 ng/mL / Papp at 6 h, 16 ng/mL: loaded 16 ng/mL; for Papp at 2 h, 32 ng/mL / Papp at 6 h, 32 ng/mL: loaded 32 ng/mL. The procedure:
as §1, §2
(§3) The apical and basolateral compartments were collected after 2, 6, and 24 h treatment time. Parts of the solutions that were used to load the apical compartments were also stored (T0) to take into account the real concentration and not the estimated concentration. All the samples were stored at −20 °C until LC/MS analysis.
(§4) The LC-MS/MS analysis of toxins was implemented for the quantitative analysis of toxins. The LC system was an Agilent 1200 (Agilent Technologies, Santa Clara, CA, USA). The chromatographic separation was performed using a column Hypersil GOLD® C18 50 mm × 2.1 mm, 1.9 μm (Thermo Scientific, Waltham, MA, USA). Eluent A consisted of water, and eluent B of acetonitrile/water at a ratio of 95:5 (v/v), with both eluents containing 50 mM formic acid and 2 mM ammonium formate. The LC flow rate was 0.4 mL/min, and the gradient was programmed as follows: 10% B held for 0.5 min, 10–90% B in 5 min, 90% B held for 1 min, 90–10% B in 0.5 min, and 10% B held for 3.0 min, for a total run time of 10 min. The injection volume was 5 μL, while the column temperature was maintained at 40 °C. The column effluent was transferred via a divert valve (Valco Instruments Co., Inc., Houston, TX, USA), either to the mass spectrometer (between 1.7 and 5.5 min) or to waste.
(§5) The detection system was constructed with an API 4000 triple quadrupole mass spectrometer (Sciex, Framingham, MA, USA) equipped with an ElectroSpray Ionization (ESI) source (Turbo V). The mass spectrometer was operated in positive ESI mode. The source temperature was set at 600 °C, and the spray voltage was 5500 V. Air was used as a nebulizer gas and an auxiliary gas, with a gas pressure of 40 and 60 psi, respectively. Meanwhile, the curtain gas and collision gas were nitrogen, with a gas pressure of 15 and 8 psi, respectively. The mass spectrometer was operated in multiple reaction monitoring mode (MRM). One transition was used for quantification (Q) and another as a qualifier transition (q). A mass resolution of 0.7 Da full width at half maximum (FWHD) was set on the first (Q1) and the third (Q3) quadrupoles. Instrument control and data were handled with Analyst software version 1.5.1 (Sciex, Framingham, MA, USA).
(§6) The portimine and PnTX retention times varied between 2.7 and 4.4 min (Figure S1). […]
Background: Caco-2 cells form a polarised layer with tight junctions and transporters.

For series [3], the system named is Caco-2 cell monolayers. Described as above. Type of series: in vitro ADME, human. Conditions: for % theoretical amount of toxin crossing the Caco-2 cell monolayers: relative to theoretical loaded concentration; for Percentage of toxin crossing the Caco-2 cell monolayers: A to B, relative to quantified T0; for permeability / oral bioavailability class from Caco-2 Papp: threshold Papp > 1.5 × 10^−6 cm·s^−1 = highly penetrative. The procedure: as §1, §2, §3, §4, §5, §6

A further series concerns mice. Conditions: mice, oral exposure; cited from earlier work.
A further series has as its system Caco-2 cells. Put plainly: Trans-epithelial electrical resistance (TEER) of differentiated Caco-2 monolayers. Conditions: 24 h. Type of series: cell-based, human. Here is the method:
as §1, §2
Epithelial integrity was examined by measuring the TEER between the apical and basolateral compartments. After rinsing with a HBSS solution (HBSS, HEPES 5 mM, pH 7.4), the Caco-2 monolayers were equilibrated for 30 min at 37 °C with 300 and 1000 µL HBSS in the apical (A) and basolateral (B) chambers, respectively. Then, the content of the apical compartment was replaced with 500 µL HBSS-containing toxins. TEER was quantified with a Millipore Millicell Electrical Resistance System (ERS Millipore, EMD Millipore Corporation, Burlington, MA, USA). The mean value of two measurements per well before and after the treatment was calculated and multiplied by the surface of the insert to obtain Ω × cm^2. After blank subtraction, the results were presented as a percentage of the solvent control.

Another series relates to cancer cells. Conditions: cancer cells; cited from earlier work.

As for `C=C1CCCC2=NCC(C)C(C)CC23CCC(C(O)CCC(=O)O)=CC3C2OC3(CC(C)CC2O3)CC2OC3(CCC4(OC(CCC4(C)O)C1)O3)CC(C)C2O` (stereo not drawn) [PnTX-E], the “effect on LY permeability” value in the series with Caco-2 cell monolayers [1] is on record as “significant increase”. In addition, in series [2] (2 and 6 h, 8-32 ng/mL, read-out: Papp, range of means), the Papp lay within 1.49 to 3.75 ×10⁻⁶ cm/s. For the same compound, in series [2], the Papp at 2 h, 8 ng/mL was found to be 3.75 ×10⁻⁶ cm/s. Moreover, the Papp at 2 h, 16 ng/mL in series [2] stood at 1.5 ± 0.4 ×10⁻⁶ cm/s. Also, the Papp at 2 h, 32 ng/mL in series [2] came to 1.81 ± 0.28 ×10⁻⁶ cm/s. In series [2], the apparent permeability (Papp) at 6 h, 8 ng/mL worked out at 2.04 ± 0.4 ×10⁻⁶ cm/s. The apparent permeability coefficient (Papp) at 6 h, 16 ng/mL in series [2] turned out to be 1.49 ± 0.65 ×10⁻⁶ cm/s. The Papp at 6 h, 32 ng/mL in series [2] stood at 2.38 ± 0.71 ×10⁻⁶ cm/s. In addition, the “% theoretical amount of toxin crossing the Caco-2 cell monolayers” value in the series with Caco-2 cell monolayers [3] (2 h, 8 ng/mL) is 5.25%; in the series with Caco-2 cell monolayers [3] (2 h, 16 ng/mL), 2.12 ± 0.71%; in the series with Caco-2 cell monolayers [3] (2 h, 32 ng/mL) it was 2.47 ± 0.31%; with Caco-2 cell monolayers [3] (6 h, 8 ng/mL), 2.87 ± 0.53%; with Caco-2 cell monolayers [3] (6 h, 16 ng/mL), 2.12 ± 1.06%; in the series with Caco-2 cell monolayers [3] (6 h, 32 ng/mL) it was 3.25 ± 0.88%. Besides, the “decrease of toxin amount in the apical compartment” value in the series with Caco-2 cell monolayers [3] (2 h, all the tested concentrations) is recorded as “approximately 15%”. Moreover, the “Percentage of toxin crossing the Caco-2 cell monolayers” value is 6.05 * % in the series on Caco-2 cell monolayers [3] (2 h, loaded 8 ng/mL); 2.41 ± 0.65% in the series on Caco-2 cell monolayers [3] (2 h, loaded 16 ng/mL); 2.92 ± 0.45% in the series on Caco-2 cell monolayers [3] (2 h, loaded 32 ng/mL); 3.29 ± 0.64% in the series with Caco-2 cell monolayers [3] (6 h, loaded 8 ng/mL); 2.40 ± 1.06% in the series with Caco-2 cell monolayers [3] (6 h, loaded 16 ng/mL); 3.85 ± 1.15% with Caco-2 cell monolayers [3] (6 h, loaded 32 ng/mL). In addition, the “toxin amount in the apical compartment” value in the series with Caco-2 cell monolayers [3] (6 h) is “approximately 100 % of the loaded amount”. The “amount of toxin crossing the intestinal barrier in vitro” value in the series on Caco-2 cell monolayers [3] (regardless of the concentration loaded, 2 and 6 h) was under 4%. The “permeability / oral bioavailability class from Caco-2 Papp” value in the series with Caco-2 cell monolayers [3] is “poor permeability”. Further, in the series with mice, the “macroscopic lesions on the intestine, other organs and tissues” value was “no macroscopic lesions”. In the series on Caco-2 cells (16 and 32 ng/mL), the “effect on TEER” value is reported as “slight, but non-significant, decrease”.
In the case of `C=C1CCCC2=NCC(C)C(C)CC23CCC(C2CCC(=O)O2)=CC3C2OC3(CC(C)CC2O3)CC2OC3(CCC4(OC(CCC4(C)O)C1)O3)CC(C)C2O` (stereo not drawn) [PnTX-F], the “effect on LY permeability” value in the series on Caco-2 cell monolayers [1] is listed as “significant increase”. Besides, in series [2], the Papp at 2 h, 8 ng/mL came to 8.95 ± 1.69 ×10⁻⁶ cm/s. Moreover, in series [2], the Papp at 2 h, 16 ng/mL turned out to be 6.28 ± 2.37 ×10⁻⁶ cm/s. Further, the Papp at 2 h, 32 ng/mL in series [2] worked out at 6.94 ± 2.03 ×10⁻⁶ cm/s. The Papp at 6 h, 8 ng/mL in series [2] was determined as 16.1 ± 0.24 ×10⁻⁶ cm/s. The Papp at 6 h, 16 ng/mL in series [2] is 11.4 ± 2.88 ×10⁻⁶ cm/s. In series [2], the apparent permeability coefficient (Papp) at 6 h, 32 ng/mL worked out at 13.7 ± 1.09 ×10⁻⁶ cm/s. In the series with Caco-2 cell monolayers [3] (2 h), the “percentage of toxin crossing (text summary over 8-32 ng/mL)” value was “around 12%”. Further, the “% theoretical amount of toxin crossing the Caco-2 cell monolayers” value came to 4.75 ± 0.35% with Caco-2 cell monolayers [3] (2 h, 8 ng/mL); 4.00 ± 0.00% in the series with Caco-2 cell monolayers [3] (2 h, 16 ng/mL); 5.03 ± 0.31% with Caco-2 cell monolayers [3] (2 h, 32 ng/mL); 8.75 ± 2.12% with Caco-2 cell monolayers [3] (6 h, 8 ng/mL); 7.44 ± 0.97% with Caco-2 cell monolayers [3] (6 h, 16 ng/mL); 10.31 ± 2.83% in the series with Caco-2 cell monolayers [3] (6 h, 32 ng/mL). Moreover, the “Percentage of toxin crossing the Caco-2 cell monolayers” value was 14.43 ± 2.73% in the series with Caco-2 cell monolayers [3] (2 h, loaded 8 ng/mL); 10.12 ± 3.82% in the series on Caco-2 cell monolayers [3] (2 h, loaded 16 ng/mL); 11.20 ± 3.27% in the series with Caco-2 cell monolayers [3] (2 h, loaded 32 ng/mL); 26.00 ± 0.52% with Caco-2 cell monolayers [3] (6 h, loaded 8 ng/mL); 18.36 ± 4.64% in the series with Caco-2 cell monolayers [3] (6 h, loaded 16 ng/mL); 22.09 ± 1.76% in the series on Caco-2 cell monolayers [3] (6 h, loaded 32 ng/mL). Besides, in the series with Caco-2 cell monolayers [3], the “permeability / oral bioavailability class from Caco-2 Papp” value is listed as “high oral bioavailability”. Further, the “macroscopic lesions on the intestine, other organs and tissues” value with mice is on record as “no macroscopic lesions”. Further, the TEER in the series with Caco-2 cells (32 ng/mL) is recorded as 67 ± 5.6 % of the control value. In addition, the “effect on TEER” value in the series with Caco-2 cells (8 and 16 ng/mL) is recorded as “slight non-significant decrease”.
On to `C=CC1=CC2C3O[C@]4(CCC(O4)[C@@H](C)C[C@@H](O)C3=O)CC(=O)C3=NCC[C@@]32CC1` (stereo partly drawn) [Portimine-B, portimine-B, reference compound], for which, in the series on cancer cells, the apoptosis induction result is listed as “induces apoptosis in cancer cells but with less activity”.

Broadly, the Papp is a coefficient for how fast a substance crosses the barrier.
